# Test system: 4T1
# Experiment: Antiproliferative activity against mouse 4T1 cells incubated for 48 hrs by CCK-8 method
# Assay type: functional, cell-based
# Settings: 4T1, 48 h
row,Compound,IC50 [nM]
1,O=C(Nc1ccc(Cl)cc1)N[C@@H](Cc1ccccc1)Cn1c[n+](Cc2ccc3ccccc3c2)c2ccccc21,7200
2,C=CC[n+]1cn(C[C@H](Cc2ccccc2)NC(=O)Nc2cc(C(F)(F)F)cc(C(F)(F)F)c2)c2ccccc21,> 10000
3,Cc1cc(C)cc(NC(=O)N[C@@H](Cc2ccccc2)Cn2c[n+](Cc3ccc4ccccc4c3)c3ccccc32)c1,7820
4,O=C(Nc1ccc(C(F)(F)F)cc1)N[C@@H](Cc1ccccc1)Cn1c[n+](Cc2ccc3ccccc3c2)c2ccccc21,3720
5,O=C(Nc1ccc(Cl)c(C(F)(F)F)c1)N[C@@H](Cc1ccccc1)Cn1c[n+](Cc2ccc3ccccc3c2)c2ccccc21,> 10000
6,O=C(Nc1cc(C(F)(F)F)cc(C(F)(F)F)c1)N[C@@H](Cc1ccccc1)Cn1c[n+](C/C=C/c2ccccc2)c2ccccc21,5630

# More lines, now with the values ahead:
row,IC50 [nM],Compound
1,7410,N#Cc1ccccc1C[n+]1cn(C[C@H](Cc2ccccc2)NC(=O)Nc2cc(C(F)(F)F)cc(C(F)(F)F)c2)c2ccccc21
2,9670,O=C(Nc1cc(C(F)(F)F)cc(C(F)(F)F)c1)N[C@@H](Cc1ccccc1)Cn1c[n+](Cc2ccc(F)cc2)c2ccccc21
3,6780,O=C(Nc1cc(C(F)(F)F)cc(C(F)(F)F)c1)N[C@@H](Cc1ccccc1)Cn1c[n+](Cc2cc(Cl)ccc2Cl)c2ccccc21
4,5330,O=C(Nc1cc(C(F)(F)F)cc(C(F)(F)F)c1)N[C@@H](Cc1ccccc1)Cn1c[n+](Cc2cccc(F)c2)c2ccccc21
5,3540,COc1cccc(C[n+]2cn(C[C@H](Cc3ccccc3)NC(=O)Nc3cc(C(F)(F)F)cc(C(F)(F)F)c3)c3ccccc32)c1
6,7030,O=C(Nc1cc(C(F)(F)F)cc(C(F)(F)F)c1)N[C@@H](Cc1ccccc1)Cn1c[n+](Cc2cccc(C(F)(F)F)c2)c2ccccc21
7,6780,Cc1cccc(C[n+]2cn(C[C@H](Cc3ccccc3)NC(=O)Nc3cc(C(F)(F)F)cc(C(F)(F)F)c3)c3ccccc32)c1
8,5630,O=C(Nc1cc(C(F)(F)F)cc(C(F)(F)F)c1)N[C@@H](Cc1ccccc1)Cn1c[n+](Cc2ccc(C(F)(F)F)cc2)c2ccccc21

# Test system: MCF7
# Experiment: Antiproliferative activity against human MCF7 cells incubated for 48 hrs by CCK-8 method
# Assay type: functional, cell-based
# Settings: MCF7, 48 h
row,Compound,IC50 [nM]
1,O=C(Nc1ccc(Cl)cc1)N[C@@H](Cc1ccccc1)Cn1c[n+](Cc2ccc3ccccc3c2)c2ccccc21,2420
2,C=CC[n+]1cn(C[C@H](Cc2ccccc2)NC(=O)Nc2cc(C(F)(F)F)cc(C(F)(F)F)c2)c2ccccc21,> 10000
3,Cc1cc(C)cc(NC(=O)N[C@@H](Cc2ccccc2)Cn2c[n+](Cc3ccc4ccccc4c3)c3ccccc32)c1,2700
4,O=C(Nc1ccc(C(F)(F)F)cc1)N[C@@H](Cc1ccccc1)Cn1c[n+](Cc2ccc3ccccc3c2)c2ccccc21,1070
5,O=C(Nc1ccc(Cl)c(C(F)(F)F)c1)N[C@@H](Cc1ccccc1)Cn1c[n+](Cc2ccc3ccccc3c2)c2ccccc21,1590
6,O=C(Nc1cc(C(F)(F)F)cc(C(F)(F)F)c1)N[C@@H](Cc1ccccc1)Cn1c[n+](C/C=C/c2ccccc2)c2ccccc21,1530

# The next lines start with the values.
row,IC50 [nM],Compound
1,3840,N#Cc1ccccc1C[n+]1cn(C[C@H](Cc2ccccc2)NC(=O)Nc2cc(C(F)(F)F)cc(C(F)(F)F)c2)c2ccccc21
2,2840,O=C(Nc1cc(C(F)(F)F)cc(C(F)(F)F)c1)N[C@@H](Cc1ccccc1)Cn1c[n+](Cc2ccc(F)cc2)c2ccccc21
3,3250,O=C(Nc1cc(C(F)(F)F)cc(C(F)(F)F)c1)N[C@@H](Cc1ccccc1)Cn1c[n+](Cc2cc(Cl)ccc2Cl)c2ccccc21
4,2430,O=C(Nc1cc(C(F)(F)F)cc(C(F)(F)F)c1)N[C@@H](Cc1ccccc1)Cn1c[n+](Cc2cccc(F)c2)c2ccccc21
5,1320,COc1cccc(C[n+]2cn(C[C@H](Cc3ccccc3)NC(=O)Nc3cc(C(F)(F)F)cc(C(F)(F)F)c3)c3ccccc32)c1
6,1860,O=C(Nc1cc(C(F)(F)F)cc(C(F)(F)F)c1)N[C@@H](Cc1ccccc1)Cn1c[n+](Cc2cccc(C(F)(F)F)c2)c2ccccc21
7,1700,Cc1cccc(C[n+]2cn(C[C@H](Cc3ccccc3)NC(=O)Nc3cc(C(F)(F)F)cc(C(F)(F)F)c3)c3ccccc32)c1
8,1610,O=C(Nc1cc(C(F)(F)F)cc(C(F)(F)F)c1)N[C@@H](Cc1ccccc1)Cn1c[n+](Cc2ccc(C(F)(F)F)cc2)c2ccccc21

# Test system: HCC1937
# Experiment: Antiproliferative activity against human HCC1937 cells incubated for 48 hrs by CCK-8 method
# Assay type: functional, cell-based
# Settings: HCC1937, 48 h
row,Compound,IC50 [nM]
1,O=C(Nc1ccc(Cl)cc1)N[C@@H](Cc1ccccc1)Cn1c[n+](Cc2ccc3ccccc3c2)c2ccccc21,1710
2,C=CC[n+]1cn(C[C@H](Cc2ccccc2)NC(=O)Nc2cc(C(F)(F)F)cc(C(F)(F)F)c2)c2ccccc21,> 10000
3,Cc1cc(C)cc(NC(=O)N[C@@H](Cc2ccccc2)Cn2c[n+](Cc3ccc4ccccc4c3)c3ccccc32)c1,5980
4,O=C(Nc1ccc(C(F)(F)F)cc1)N[C@@H](Cc1ccccc1)Cn1c[n+](Cc2ccc3ccccc3c2)c2ccccc21,2980
5,O=C(Nc1ccc(Cl)c(C(F)(F)F)c1)N[C@@H](Cc1ccccc1)Cn1c[n+](Cc2ccc3ccccc3c2)c2ccccc21,2550
6,O=C(Nc1cc(C(F)(F)F)cc(C(F)(F)F)c1)N[C@@H](Cc1ccccc1)Cn1c[n+](C/C=C/c2ccccc2)c2ccccc21,2410

# Now from value to compound:
row,IC50 [nM],Compound
1,5600,N#Cc1ccccc1C[n+]1cn(C[C@H](Cc2ccccc2)NC(=O)Nc2cc(C(F)(F)F)cc(C(F)(F)F)c2)c2ccccc21
2,4200,O=C(Nc1cc(C(F)(F)F)cc(C(F)(F)F)c1)N[C@@H](Cc1ccccc1)Cn1c[n+](Cc2ccc(F)cc2)c2ccccc21
3,2050,O=C(Nc1cc(C(F)(F)F)cc(C(F)(F)F)c1)N[C@@H](Cc1ccccc1)Cn1c[n+](Cc2cc(Cl)ccc2Cl)c2ccccc21
4,3170,O=C(Nc1cc(C(F)(F)F)cc(C(F)(F)F)c1)N[C@@H](Cc1ccccc1)Cn1c[n+](Cc2cccc(F)c2)c2ccccc21
5,3680,COc1cccc(C[n+]2cn(C[C@H](Cc3ccccc3)NC(=O)Nc3cc(C(F)(F)F)cc(C(F)(F)F)c3)c3ccccc32)c1
6,3480,O=C(Nc1cc(C(F)(F)F)cc(C(F)(F)F)c1)N[C@@H](Cc1ccccc1)Cn1c[n+](Cc2cccc(C(F)(F)F)c2)c2ccccc21
7,3720,Cc1cccc(C[n+]2cn(C[C@H](Cc3ccccc3)NC(=O)Nc3cc(C(F)(F)F)cc(C(F)(F)F)c3)c3ccccc32)c1
8,2680,O=C(Nc1cc(C(F)(F)F)cc(C(F)(F)F)c1)N[C@@H](Cc1ccccc1)Cn1c[n+](Cc2ccc(C(F)(F)F)cc2)c2ccccc21

# Test system: MCF-10A
# Experiment: Antiproliferative activity against human MCF-10A cells incubated for 48 hrs by CCK-8 method
# Assay type: functional, cell-based
# Settings: not given
row,Compound,IC50 [nM]
1,O=C(Nc1ccc(Cl)cc1)N[C@@H](Cc1ccccc1)Cn1c[n+](Cc2ccc3ccccc3c2)c2ccccc21,> 10000
2,N#Cc1ccccc1C[n+]1cn(C[C@H](Cc2ccccc2)NC(=O)Nc2cc(C(F)(F)F)cc(C(F)(F)F)c2)c2ccccc21,> 10000
3,C=CC[n+]1cn(C[C@H](Cc2ccccc2)NC(=O)Nc2cc(C(F)(F)F)cc(C(F)(F)F)c2)c2ccccc21,> 10000
4,Cc1cc(C)cc(NC(=O)N[C@@H](Cc2ccccc2)Cn2c[n+](Cc3ccc4ccccc4c3)c3ccccc32)c1,> 10000
5,O=C(Nc1ccc(C(F)(F)F)cc1)N[C@@H](Cc1ccccc1)Cn1c[n+](Cc2ccc3ccccc3c2)c2ccccc21,> 10000
6,O=C(Nc1ccc(Cl)c(C(F)(F)F)c1)N[C@@H](Cc1ccccc1)Cn1c[n+](Cc2ccc3ccccc3c2)c2ccccc21,> 10000
7,O=C(Nc1cc(C(F)(F)F)cc(C(F)(F)F)c1)N[C@@H](Cc1ccccc1)Cn1c[n+](Cc2ccc(F)cc2)c2ccccc21,> 10000
8,O=C(Nc1cc(C(F)(F)F)cc(C(F)(F)F)c1)N[C@@H](Cc1ccccc1)Cn1c[n+](Cc2cc(Cl)ccc2Cl)c2ccccc21,> 10000
9,O=C(Nc1cc(C(F)(F)F)cc(C(F)(F)F)c1)N[C@@H](Cc1ccccc1)Cn1c[n+](Cc2cccc(F)c2)c2ccccc21,9320
10,COc1cccc(C[n+]2cn(C[C@H](Cc3ccccc3)NC(=O)Nc3cc(C(F)(F)F)cc(C(F)(F)F)c3)c3ccccc32)c1,> 10000
11,O=C(Nc1cc(C(F)(F)F)cc(C(F)(F)F)c1)N[C@@H](Cc1ccccc1)Cn1c[n+](Cc2cccc(C(F)(F)F)c2)c2ccccc21,> 10000
12,Cc1cccc(C[n+]2cn(C[C@H](Cc3ccccc3)NC(=O)Nc3cc(C(F)(F)F)cc(C(F)(F)F)c3)c3ccccc32)c1,> 10000
13,O=C(Nc1cc(C(F)(F)F)cc(C(F)(F)F)c1)N[C@@H](Cc1ccccc1)Cn1c[n+](Cc2ccc(C(F)(F)F)cc2)c2ccccc21,8120
14,O=C(Nc1cc(C(F)(F)F)cc(C(F)(F)F)c1)N[C@@H](Cc1ccccc1)Cn1c[n+](C/C=C/c2ccccc2)c2ccccc21,> 10000

# Test system: MDA-MB-468
# Experiment: Antiproliferative activity against human MDA-MB-468 cells incubated for 48 hrs by CCK-8 method
# Assay type: functional, cell-based
# Settings: MDA-MB-468, 48 h
row,Compound,IC50 [nM]
1,O=C(Nc1ccc(Cl)cc1)N[C@@H](Cc1ccccc1)Cn1c[n+](Cc2ccc3ccccc3c2)c2ccccc21,3020
2,C=CC[n+]1cn(C[C@H](Cc2ccccc2)NC(=O)Nc2cc(C(F)(F)F)cc(C(F)(F)F)c2)c2ccccc21,> 10000
3,Cc1cc(C)cc(NC(=O)N[C@@H](Cc2ccccc2)Cn2c[n+](Cc3ccc4ccccc4c3)c3ccccc32)c1,3250
4,O=C(Nc1ccc(C(F)(F)F)cc1)N[C@@H](Cc1ccccc1)Cn1c[n+](Cc2ccc3ccccc3c2)c2ccccc21,2080
5,O=C(Nc1ccc(Cl)c(C(F)(F)F)c1)N[C@@H](Cc1ccccc1)Cn1c[n+](Cc2ccc3ccccc3c2)c2ccccc21,1290
6,O=C(Nc1cc(C(F)(F)F)cc(C(F)(F)F)c1)N[C@@H](Cc1ccccc1)Cn1c[n+](C/C=C/c2ccccc2)c2ccccc21,2440

# The remaining lines, values ahead:
row,IC50 [nM],Compound
1,3640,N#Cc1ccccc1C[n+]1cn(C[C@H](Cc2ccccc2)NC(=O)Nc2cc(C(F)(F)F)cc(C(F)(F)F)c2)c2ccccc21
2,3220,O=C(Nc1cc(C(F)(F)F)cc(C(F)(F)F)c1)N[C@@H](Cc1ccccc1)Cn1c[n+](Cc2ccc(F)cc2)c2ccccc21
3,2620,O=C(Nc1cc(C(F)(F)F)cc(C(F)(F)F)c1)N[C@@H](Cc1ccccc1)Cn1c[n+](Cc2cc(Cl)ccc2Cl)c2ccccc21
4,1710,O=C(Nc1cc(C(F)(F)F)cc(C(F)(F)F)c1)N[C@@H](Cc1ccccc1)Cn1c[n+](Cc2cccc(F)c2)c2ccccc21
5,1570,COc1cccc(C[n+]2cn(C[C@H](Cc3ccccc3)NC(=O)Nc3cc(C(F)(F)F)cc(C(F)(F)F)c3)c3ccccc32)c1
6,2340,O=C(Nc1cc(C(F)(F)F)cc(C(F)(F)F)c1)N[C@@H](Cc1ccccc1)Cn1c[n+](Cc2cccc(C(F)(F)F)c2)c2ccccc21
7,2360,Cc1cccc(C[n+]2cn(C[C@H](Cc3ccccc3)NC(=O)Nc3cc(C(F)(F)F)cc(C(F)(F)F)c3)c3ccccc32)c1
8,2500,O=C(Nc1cc(C(F)(F)F)cc(C(F)(F)F)c1)N[C@@H](Cc1ccccc1)Cn1c[n+](Cc2ccc(C(F)(F)F)cc2)c2ccccc21

# Target: Mitogen-activated protein kinase 1 (Homo sapiens, UniProt P28482)
# Experiment: Inhibition of ERK2 (unknown origin) incubated for 60 mins by luminescence based ADP-Glo kinase assay
# Settings: not given
# Chain of Mitogen-activated protein kinase 1 (P28482 whole entry): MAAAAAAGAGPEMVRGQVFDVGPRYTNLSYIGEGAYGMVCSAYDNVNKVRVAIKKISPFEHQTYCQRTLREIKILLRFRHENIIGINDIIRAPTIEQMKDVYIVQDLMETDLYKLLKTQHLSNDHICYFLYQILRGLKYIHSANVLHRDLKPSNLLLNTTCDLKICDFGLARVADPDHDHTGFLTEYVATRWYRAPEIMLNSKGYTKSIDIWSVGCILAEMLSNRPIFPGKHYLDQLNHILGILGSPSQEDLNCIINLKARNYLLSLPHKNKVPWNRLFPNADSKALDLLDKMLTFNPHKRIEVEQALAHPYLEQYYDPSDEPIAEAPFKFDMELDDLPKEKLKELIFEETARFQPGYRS
row,Compound,IC50 [nM]
1,O=C(Nc1ccc(Cl)cc1)N[C@@H](Cc1ccccc1)Cn1c[n+](Cc2ccc3ccccc3c2)c2ccccc21,248
2,C=CC[n+]1cn(C[C@H](Cc2ccccc2)NC(=O)Nc2cc(C(F)(F)F)cc(C(F)(F)F)c2)c2ccccc21,> 10000
3,Cc1cc(C)cc(NC(=O)N[C@@H](Cc2ccccc2)Cn2c[n+](Cc3ccc4ccccc4c3)c3ccccc32)c1,327
4,O=C(Nc1ccc(C(F)(F)F)cc1)N[C@@H](Cc1ccccc1)Cn1c[n+](Cc2ccc3ccccc3c2)c2ccccc21,217
5,O=C(Nc1ccc(Cl)c(C(F)(F)F)c1)N[C@@H](Cc1ccccc1)Cn1c[n+](Cc2ccc3ccccc3c2)c2ccccc21,244
6,O=C(Nc1cc(C(F)(F)F)cc(C(F)(F)F)c1)N[C@@H](Cc1ccccc1)Cn1c[n+](C/C=C/c2ccccc2)c2ccccc21,237

# Results, then the compound that gave them:
row,IC50 [nM],Compound
1,414,N#Cc1ccccc1C[n+]1cn(C[C@H](Cc2ccccc2)NC(=O)Nc2cc(C(F)(F)F)cc(C(F)(F)F)c2)c2ccccc21
2,294,O=C(Nc1cc(C(F)(F)F)cc(C(F)(F)F)c1)N[C@@H](Cc1ccccc1)Cn1c[n+](Cc2ccc(F)cc2)c2ccccc21
3,193,O=C(Nc1cc(C(F)(F)F)cc(C(F)(F)F)c1)N[C@@H](Cc1ccccc1)Cn1c[n+](Cc2cc(Cl)ccc2Cl)c2ccccc21
4,133,O=C(Nc1cc(C(F)(F)F)cc(C(F)(F)F)c1)N[C@@H](Cc1ccccc1)Cn1c[n+](Cc2cccc(F)c2)c2ccccc21
5,247,COc1cccc(C[n+]2cn(C[C@H](Cc3ccccc3)NC(=O)Nc3cc(C(F)(F)F)cc(C(F)(F)F)c3)c3ccccc32)c1
6,185,O=C(Nc1cc(C(F)(F)F)cc(C(F)(F)F)c1)N[C@@H](Cc1ccccc1)Cn1c[n+](Cc2cccc(C(F)(F)F)c2)c2ccccc21
7,275,Cc1cccc(C[n+]2cn(C[C@H](Cc3ccccc3)NC(=O)Nc3cc(C(F)(F)F)cc(C(F)(F)F)c3)c3ccccc32)c1
8,223,O=C(Nc1cc(C(F)(F)F)cc(C(F)(F)F)c1)N[C@@H](Cc1ccccc1)Cn1c[n+](Cc2ccc(C(F)(F)F)cc2)c2ccccc21

# Reference: ChEMBL document CHEMBL6153138, “Discovery of Novel Aromatic Urea-Imidazole Salt Derivatives for Cancer Therapy via Targeting ERK1/2” (J Med Chem, 2025)
